Source: US20020137929A1, “1 - (3-heterocyclylphenyl) isothiourea, -isourea, -guanidine and -amidine herbicidal agents” (Intellectual Property Department, BASF Aktiengesellschaft, priority 1998, published 2002)

Legend:
[1] = tested on: TRZAWR (Wheat, Winter, cv Riband); assay: Postemergence herbicidal evaluation; type: in vivo, Triticum aestivum; conditions: postemergence
Summary of the method: (§1)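 Young plants, roughly two weeks from seeding, receive the active ingredient as a sprayed dispersion (acetone/water 50/50, 0.5% TWEEN 20) at 40 psi. Doses span about 0.0156 to 0.500 kg/ha. A visual score from 0 to 9 compares treated with control plants four to five weeks on.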

[2] = tested on: IPOHE (Morningglory, Ivyleaf); assay: Preemergence herbicidal evaluation; type: in vivo, Ipomoea hederacea; conditions: rated 4-5 weeks after treatment
Summary of the method: (§2)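 Seeds were mixed with potting soil and planted on about one inch of soil, then sprayed with test compound in aqueous acetone at about 0.0156 to 0.500 kg per hectare. Plants grew under standard greenhouse care and were visually rated 0-9 against untreated controls 4-5 weeks post-treatment.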

[3] = tested on: MOOVA (Monochoria); assay: Preemergence weed control under flooded paddy conditions; type: in vivo, Monochoria vaginalis; conditions: rated 3-4 weeks after treatment
Summary of the method: (§3)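 Seeds or propagules sown in silt loam kept flooded 1.5-3 cm; compounds in 50/50 acetone/water pipetted into flood water at about 0.0313 to 0.500 kg/ha. Greenhouse; visual 0-9 rating versus untreated control 3-4 weeks after treatment.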

[4] = tested on: ORYSAT (Rice, Tebonnet); assay: Preemergence herbicidal evaluation; type: in vivo, Oryza sativa, (L.) Tebonnet; conditions: rated 4-5 weeks after treatment
Summary of the method: as §2

[5] = tested on: TRZAWR (Wheat, Winter, cv Riband); assay: Preemergence herbicidal evaluation; type: in vivo, Triticum aestivum; conditions: rated 4-5 weeks after treatment
Summary of the method: as §2

[6] = tested on: CHEAL (Lambsquarters, Common); assay: Preemergence herbicidal evaluation; type: in vivo, Chenopodium album; conditions: rated 4-5 weeks after treatment
Summary of the method: as §2

[7] = tested on: ECHORC (Watergrass (Calif.)); assay: Preemergence weed control under flooded paddy conditions; type: in vivo, Echinochloa oryzoides; conditions: rated 3-4 weeks after treatment
Summary of the method: as §3

[8] = tested on: ECHCG (Barnyardgrass); assay: Preemergence herbicidal evaluation; type: in vivo, Echinochloa crus-galli; conditions: rated 4-5 weeks after treatment
Summary of the method: as §2

[9] = tested on: IPOHE (Morningglory, Ivyleaf); assay: Postemergence herbicidal evaluation; type: in vivo, Ipomoea hederacea; conditions: postemergence
Summary of the method: as §1

[10] = tested on: SETVI (Foxtail, Green); assay: Preemergence herbicidal evaluation; type: in vivo, Setaria viridis; conditions: rated 4-5 weeks after treatment
Summary of the method: as §2

[11] = tested on: ABUTH (Velvetleaf); assay: Postemergence herbicidal evaluation; type: in vivo, Abutilon theophrasti; conditions: postemergence
Summary of the method: as §1

SMILES: CCOC(=O)CN1C(=O)C(SC)SC1=Nc1cc(-n2c(=O)cc(C(F)(F)F)n(C)c2=O)c(F)cc1Cl (centres unmarked) [Compound 125, Ethyl 2-{{2-chloro-5-[3,6-dihydro-3-methyl-2,6-dioxo-4-(trifluoromethyl)-1(2H)-pyrimidinyl]-4-fluorophenyl}imino}-5-(methylthio)-4-oxo-3-thiazolidineacetate]
- herbicidal rating TRZAWR ([1]; rate 0.0156 kg/ha): 4.3
- herbicidal rating TRZAWR ([1]; rate 0.0313 kg/ha): 5.0
- herbicidal rating TRZAWR ([1]; rate 0.0625 kg/ha): 5.0
- Preemergence herbicidal rating IPOHE ([2]; rate 0.0156 kg/ha): 0.0
- Preemergence herbicidal rating IPOHE ([2]; rate 0.0313 kg/ha): 0.0
- Preemergence herbicidal rating IPOHE ([2]; rate 0.0625 kg/ha): 4.0
- Preemergence herbicidal rating IPOHE ([2]; rate 0.1250 kg/ha): 4.0
- Preemergence herbicidal rating IPOHE ([2]; rate 0.2500 kg/ha): 9.0
- Preemergence herbicidal rating IPOHE ([2]; rate 0.5000 kg/ha): 9.0
- herbicidal effect rating, MOOVA ([3]; 0.0313 kg/ha): 5.0
- herbicidal effect rating, MOOVA ([3]; 0.0625 kg/ha): 7.0
- herbicidal effect rating, MOOVA ([3]; 0.1250 kg/ha): 7.0
- herbicidal effect rating, MOOVA ([3]; 0.2500 kg/ha): 9.0
- Preemergence herbicidal rating ORYSAT ([4]; rate 0.0156 kg/ha): 0.0
- Preemergence herbicidal rating ORYSAT ([4]; rate 0.0313 kg/ha): 0.0
- Preemergence herbicidal rating ORYSAT ([4]; rate 0.0625 kg/ha): 1.0
- Preemergence herbicidal rating ORYSAT ([4]; rate 0.1250 kg/ha): 1.0
- Preemergence herbicidal rating ORYSAT ([4]; rate 0.2500 kg/ha): 4.0
- Preemergence herbicidal rating ORYSAT ([4]; rate 0.5000 kg/ha): 4.0
- Preemergence herbicidal rating TRZAWR ([5]; rate 0.0156 kg/ha): 0.0
- Preemergence herbicidal rating TRZAWR ([5]; rate 0.0313 kg/ha): 0.0
- Preemergence herbicidal rating TRZAWR ([5]; rate 0.0625 kg/ha): 1.0
- Preemergence herbicidal rating TRZAWR ([5]; rate 0.1250 kg/ha): 1.0
- Preemergence herbicidal rating TRZAWR ([5]; rate 0.2500 kg/ha): 4.0
- Preemergence herbicidal rating TRZAWR ([5]; rate 0.5000 kg/ha): 5.0
- Preemergence herbicidal rating CHEAL ([6]; rate 0.0156 kg/ha): 9.0
- Preemergence herbicidal rating CHEAL ([6]; rate 0.0313 kg/ha): 9.0
- Preemergence herbicidal rating CHEAL ([6]; rate 0.0625 kg/ha): 9.0
- Preemergence herbicidal rating CHEAL ([6]; rate 0.1250 kg/ha): 9.0
- Preemergence herbicidal rating CHEAL ([6]; rate 0.2500 kg/ha): 9.0
- Preemergence herbicidal rating CHEAL ([6]; rate 0.5000 kg/ha): 9.0
- herbicidal effect rating, ECHORC ([7]; 0.0313 kg/ha): 2.0
- herbicidal effect rating, ECHORC ([7]; 0.0625 kg/ha): 4.0
- herbicidal effect rating, ECHORC ([7]; 0.1250 kg/ha): 7.0
- herbicidal effect rating, ECHORC ([7]; 0.2500 kg/ha): 7.0
- Preemergence herbicidal rating ECHCG ([8]; rate 0.0156 kg/ha): 0.0
- Preemergence herbicidal rating ECHCG ([8]; rate 0.0313 kg/ha): 0.0
- Preemergence herbicidal rating ECHCG ([8]; rate 0.0625 kg/ha): 0.0
- Preemergence herbicidal rating ECHCG ([8]; rate 0.1250 kg/ha): 3.0
- Preemergence herbicidal rating ECHCG ([8]; rate 0.2500 kg/ha): 7.0
- Preemergence herbicidal rating ECHCG ([8]; rate 0.5000 kg/ha): 9.0
- herbicidal rating IPOHE ([9]; rate 0.0156 kg/ha): 9.0
- herbicidal rating IPOHE ([9]; rate 0.0313 kg/ha): 9.0
- herbicidal rating IPOHE ([9]; rate 0.0625 kg/ha): 9.0
- Preemergence herbicidal rating SETVI ([10]; rate 0.0156 kg/ha): 0.0
- Preemergence herbicidal rating SETVI ([10]; rate 0.0313 kg/ha): 0.0
- Preemergence herbicidal rating SETVI ([10]; rate 0.0625 kg/ha): 5.0
- Preemergence herbicidal rating SETVI ([10]; rate 0.1250 kg/ha): 9.0
- Preemergence herbicidal rating SETVI ([10]; rate 0.2500 kg/ha): 9.0
- Preemergence herbicidal rating SETVI ([10]; rate 0.5000 kg/ha): 9.0
- herbicidal rating ABUTH ([11]; rate 0.0156 kg/ha): 9.0
- herbicidal rating ABUTH ([11]; rate 0.0313 kg/ha): 9.0
- herbicidal rating ABUTH ([11]; rate 0.0625 kg/ha): 9.0
